Measurements from patent US20230265056A1, “CRYSTALLINE FORMS OF BENZAMIDE COMPOUND AND PROCESS FOR PREPARING THE SAME” (CRYSTAL PHARMATECH CO., LTD., priority 2020, published 2023).
≈ marks a conversion by molar mass, not a printed value.

Legend:
[1] = Kinetic solubility in SGF, FaSSIF, FeSSIF and pure water (HPLC); conditions: for solubility kinetic at 1 h / solubility kinetic at 4 h / solubility kinetic at 24 h: thermodynamic from solid
Procedure: (§1) Suspend Form J (from example 1), amorphous (from example 2) and Form A (from WO2020234779A1) in Simulated Gastric Fluid (SGF), Fasted-State Simulated Intestinal Fluid (FaSSIF), Fed-State Simulated Intestinal Fluid (FeSSIF) and pure water, respectively. After equilibrium for 1 hour, 8 hours and 24 hours, filter the solution for HPLC test.

[2] = Hygroscopicity by DVS test, with XRPD before and after; assay type: physicochemical; conditions: for Water uptake at 25° C., 80% / Water uptake at 25° C., 90%: DVS; for Water uptake at 25° C., 80%: 80% relative humidity; for Water uptake at 25° C., 90%: 90% relative humidity
Procedure: The dynamic vapor sorption diagrams of the present disclosure were collected on Intrinsic-type and Intrinsic Plus-type dynamic vapor sorption instruments of SMS company. The process parameters of the dynamic vapor sorption test of the present disclosure were as follows:
Protection gas and its flow rate: N2, 200 mL/minute
Minimum dm/dt equilibration time: 10 minutes
Maximum Equilibration Time: 180 minutes
Relative humidity range: 0% RH-95% RH-0% RH, 50% RH-95% RH-0% RH
Relative humidity gradient: 10% (0% RH-90% RH-0% RH), 5% (90% RH-95% RH and 95% RH-90% RH).
Weigh approximately 10 mg of a form of formula (I) (i.e., Form A from WO2020234779A1), 10 mg of Form J and 10 mg of amorphous for DVS test, and then collect the obtained solid for XRPD analysis. The DVS plots of Form A, Form J and amorphous were shown in FIGS. 6, 8 and 10, and the XRPD overlay were shown in
Following is Description and definition of hygroscopicity (see appendix XIX J, guidance for hygroscopicity evaluation of Pharmacopoeia of the People's Republic of China 2010): […]

[3] = Intrinsic dissolution of compressed thin tablet; assay type: physicochemical; conditions: pH 1.5 aqueous HCl solution
Procedure: Approximately 100 mg of each of Form J (from example 1) and Form A (from WO2020234779A1) were compressed by intrinsic dissolution mold under 10 kN pressure to obtain a thin tablet with surface area of 1.0 cm2, respectively. Dissolution experiment was performed on the tablets, and the corresponding result was summarized in Table 4, dissolution profile was shown in FIG. 16.

[4] = Sticking propensity (powder adhering to punch tip); assay type: physicochemical; conditions: 6 mm circle punches, 10 kN pressure, compared with Form A
Procedure: Approximately 30 mg of each of Form J (from example 1) and Form A (from WO2020234779A1) were compressed by 6 mm circle punches under 10 kN pressure, respectively. The loading mass (ML) and tablet mass (MT) were recorded, and mass percentage of powder adhering to punch tip (ma) was calculated by the equation of ma=(ML−MT)/ML×100%.

Crystal habit by PLM = assay type: physicochemical; conditions: compared with Form A
Procedure: About 10 mg of Form J (from example 1) and Form A (from WO2020234779A1) were weighed and placed onto a glass slide, respectively, the solid were dispersed with several vacuum pump oil, and then covered with a cover glass. The samples were observed using PLM.

[5] = Solid-state stability (XRPD and HPLC purity); assay type: physicochemical; conditions: for Purity: HPLC; for Solid form: XRPD
Procedure: Weigh appropriate amount of Form J (from example 1) into a 5-mL glass vial, and then seal the vial with parafilm (pricked 5 pinholes). Place the vial under 25° C./60% RH and 40° C./75% RH for some time, and then separate several solids out for XRPD and HPLC purity test.

physchem = conditions: thermodynamic from solid
Procedure: as §1

PSD test = assay type: physicochemical; conditions: Isopar G (0.2% lecithin), before and after sonication for 30 s, compared with Form A
Procedure: Approximately 10-30 mg of each of Form J (from example 1) and Form A (from WO2020234779A1) were added into 5 mL Isopar G (0.2% lecithin) to form a suspension, respectively. The suspension was loaded into SDC system for data collection, which was collected before and after sonication for 30 s.

For `C=CC(=O)N(C)CCOc1c(N)ncnc1-c1cc(F)cc(NC(=O)c2ccc(C3CC3)cc2F)c1C` [Amorphous, N-(3-(6-amino-5-(2-(N-methylacrylamido)ethoxy)pyrimidin-4-yl)-5-fluoro-2-methylphenyl)-4-cyclopropyl-2-fluorobenzamide], the Kinetic solubility ([1]; FaSSIF, 24 hr) was 11 µg/mL, the solubility kinetic at 1 h ([1]; Fasted-State Simulated Intestinal Fluid (FaSSIF), fassif, 1 hr) was 10 µg/mL (≈ 19.7 µM) and the solubility kinetic at 4 h ([1]; Fasted-State Simulated Intestinal Fluid (FaSSIF), fassif, 4 hr) was 11 µg/mL (≈ 21.7 µM). For the same molecule, the solubility kinetic at 1 h ([1]; Fed-State Simulated Intestinal Fluid (FeSSIF), fessif, 1 hr) was 33 µg/mL (≈ 65 µM), the solubility kinetic at 4 h ([1]; Fed-State Simulated Intestinal Fluid (FeSSIF), fessif, 4 hr) was 34 µg/mL (≈ 67 µM) and the solubility kinetic at 24 h ([1]; Fed-State Simulated Intestinal Fluid (FeSSIF), fessif, 24 hr) was 33 µg/mL (≈ 65 µM). The Kinetic solubility ([1]; SGF, 1 hr) was 1400 µg/mL, the solubility kinetic at 4 h ([1]; Simulated Gastric Fluid (SGF), simulated gastric fluid, SGF, 4 hr) was 1000 µg/mL (≈ 1970 µM) and the solubility kinetic at 24 h ([1]; Simulated Gastric Fluid (SGF), simulated gastric fluid, SGF, 24 hr) was 950 µg/mL (≈ 1870 µM). It also gave a solubility kinetic at 1 h ([1]; pure water, water, H2O, 1 hr) of 4.6 µg/mL (≈ 9.06 µM), a solubility kinetic at 4 h ([1]; pure water, water, H2O, 4 hr) of 4.4 µg/mL (≈ 8.67 µM) and a solubility kinetic at 24 h ([1]; pure water, water, H2O, 24 hr) of 4.3 µg/mL (≈ 8.47 µM). The “Water uptake at 25° C., 80%” value [2] was 3.37%, the “Water uptake at 25° C., 90%” value [2] was 4.14% and the Hygroscopicity ([2]; class per Pharmacopoeia of the People's Republic of China 2010) was “Hygroscopic (increase in mass is less than 15 percent and equal to or greater than 2 percent)”.

For `C=CC(=O)N(C)CCOc1c(N)ncnc1-c1cc(F)cc(NC(=O)c2ccc(C3CC3)cc2F)c1C` [Form A, N-(3-(6-amino-5-(2-(N-methylacrylamido)ethoxy)pyrimidin-4-yl)-5-fluoro-2-methylphenyl)-4-cyclopropyl-2-fluorobenzamide, reference compound], the Kinetic solubility ([1]; FaSSIF, 1 hr) was 6.1 µg/mL, the Kinetic solubility ([1]; FaSSIF, 4 hr) was 6.5 µg/mL and the Kinetic solubility ([1]; FaSSIF, 24 hr) was 5 µg/mL. The Kinetic solubility ([1]; FeSSIF, 1 hr) was 20 µg/mL, the Kinetic solubility ([1]; FeSSIF, 4 hr) was 22 µg/mL and the Kinetic solubility ([1]; FeSSIF, 24 hr) was 22 µg/mL. It also gave a Kinetic solubility ([1]; H2O, 1 hr) of 3.7 µg/mL, a Kinetic solubility ([1]; H2O, 4 hr) of 3.9 µg/mL and a Kinetic solubility ([1]; H2O, 24 hr) of 2.9 µg/mL. It also gave a Kinetic solubility ([1]; SGF, 1 hr) of 690 µg/mL, a Kinetic solubility ([1]; SGF, 4 hr) of 710 µg/mL and a Kinetic solubility ([1]; SGF, 24 hr) of 700 µg/mL. For the same molecule, the Cumulative dissolution amount ([3]; 5 mins) was 0.5 mg, the Cumulative dissolution amount ([3]; 10 mins) was 0.9 mg and the Cumulative dissolution amount ([3]; 15 mins) was 1.3 mg. For the same molecule, the Cumulative dissolution amount ([3]; 20 mins) was 1.6 mg, the Cumulative dissolution amount ([3]; 25 mins) was 2.1 mg and the Cumulative dissolution amount ([3]; 30 mins) was 2.7 mg. The Cumulative dissolution amount ([3]; 60 mins) was 3.2 mg, the Cumulative dissolution amount ([3]; 75 mins) was 4.3 mg and the “Water uptake at 25° C., 80%” value [2] was 0.54%. The “Water uptake at 25° C., 90%” value [2] was 0.68%.

For `C=CC(=O)N(C)CCOc1c(N)ncnc1-c1cc(F)cc(NC(=O)c2ccc(C3CC3)cc2F)c1C` [Form J, N-(3-(6-amino-5-(2-(N-methylacrylamido)ethoxy)pyrimidin-4-yl)-5-fluoro-2-methylphenyl)-4-cyclopropyl-2-fluorobenzamide], the Sticking propensity [4] was “lower sticking propensity than Form A”, the Crystal habit (Crystal habit by PLM) was “better crystal habit than Form A” and the “Form change and HPLC purity decrease on storage” value ([5]; 25° C./60% RH and 40° C./75% RH for 8 weeks) was “no obvious form change and HPLC purity decrease”. The “Purity/initial Purity” value ([5]; 25° C./60% RH, 1 week) was 99.6%, the Purity ([5]; 25° C./60% RH, 1 week) was 99.09 area % and the Solid form ([5]; 25° C./60% RH, 1 week) was “Form J”. The “Purity/initial Purity” value ([5]; 25° C./60% RH, 2 weeks) was 99.0%, the Purity ([5]; 25° C./60% RH, 2 weeks) was 98.48 area % and the Solid form ([5]; 25° C./60% RH, 2 weeks) was “Form J”. For the same molecule, the “Purity/initial Purity” value ([5]; 25° C./60% RH, 4 weeks) was 99.2%, the Purity ([5]; 25° C./60% RH, 4 weeks) was 98.71 area % and the Solid form ([5]; 25° C./60% RH, 4 weeks) was “Form J”. The “Purity/initial Purity” value ([5]; 25° C./60% RH, 8 weeks) was 98.7%, the Purity ([5]; 25° C./60% RH, 8 weeks) was 97.94 area % and the Solid form ([5]; 25° C./60% RH, 8 weeks) was “Form J”. The “Purity/initial Purity” value ([5]; 40° C./75% RH, 1 week) was 99.6%, the Purity ([5]; 40° C./75% RH, 1 week) was 99.05 area % and the Solid form ([5]; 40° C./75% RH, 1 week) was “Form J”. For the same molecule, the “Purity/initial Purity” value ([5]; 40° C./75% RH, 2 weeks) was 98.9%, the Purity ([5]; 40° C./75% RH, 2 weeks) was 98.39 area % and the Solid form ([5]; 40° C./75% RH, 2 weeks) was “Form J”. The “Purity/initial Purity” value ([5]; 40° C./75% RH, 4 weeks) was 99.0%, the Purity ([5]; 40° C./75% RH, 4 weeks) was 98.42 area % and the Solid form ([5]; 40° C./75% RH, 4 weeks) was “Form J”. The “Purity/initial Purity” value ([5]; 40° C./75% RH, 8 weeks) was 98.0%, the Purity ([5]; 40° C./75% RH, 8 weeks) was 97.32 area % and the Solid form ([5]; 40° C./75% RH, 8 weeks) was “Form J”. For the same molecule, the solubility kinetic at 1 h (physchem; fassif) was 24 µg/mL (≈ 47.3 µM), the solubility kinetic at 4 h (physchem; fassif) was 14 µg/mL (≈ 27.6 µM) and the solubility kinetic at 24 h (physchem; fassif) was 16 µg/mL (≈ 31.5 µM). The solubility kinetic at 1 h (physchem; fessif) was 130 µg/mL (≈ 256 µM), the solubility kinetic at 4 h (physchem; fessif) was 53 µg/mL (≈ 104 µM) and the solubility kinetic at 24 h (physchem; fessif) was 57 µg/mL (≈ 112 µM). The solubility kinetic at 1 h (physchem; simulated gastric fluid) was 2400 µg/mL (≈ 4730 µM), the solubility kinetic at 4 h (physchem; simulated gastric fluid) was 2700 µg/mL (≈ 5320 µM) and the solubility kinetic at 24 h (physchem; simulated gastric fluid) was 2600 µg/mL (≈ 5120 µM). The solubility kinetic at 1 h (physchem; water) was 12 µg/mL (≈ 23.6 µM), the solubility kinetic at 4 h (physchem; water) was 15 µg/mL (≈ 29.6 µM) and the solubility kinetic at 24 h (physchem; water) was 19 µg/mL (≈ 37.4 µM). The Particle size distribution (PSD test) was “more uniform particle size distribution than Form A”, the “Dissolution compared with Form A” value [3] was “larger total dissolution amount and higher cumulative dissolution rate than Form A” and the Cumulative dissolution amount ([3]; 5 mins) was 1.1 mg. It also gave a Cumulative dissolution amount ([3]; 10 mins) of 2.5 mg, a Cumulative dissolution amount ([3]; 15 mins) of 2.9 mg and a Cumulative dissolution amount ([3]; 20 mins) of 3.3 mg. For the same molecule, the Cumulative dissolution amount ([3]; 25 mins) was 3.9 mg, the Cumulative dissolution amount ([3]; 30 mins) was 4.7 mg and the Cumulative dissolution amount ([3]; 60 mins) was 5.6 mg. The Cumulative dissolution amount ([3]; 75 mins) was 7.2 mg, the “Water uptake at 25° C., 80%” value [2] was 0.53% and the “Water uptake at 25° C., 90%” value [2] was 0.60%.
